Active and inactive are the calls of the source. No cut-off for these calls is given here.
Key:
[1] = system: T-cell; experiment: Antiproliferative activity against human T cells assessed as inhibition of PMA-ionomycin stimulated cell proliferation by [3H]thymidine incorporation assay; assay type: functional, cell-based
[2] = system: T-cell; experiment: Antiproliferative activity against Lewis rat T cells assessed as inhibition of PMA-ionomycin stimulated cell proliferation by [3H]thymidine incorporation assay; assay type: functional, cell-based
[3] = system: PBMC; experiment: Antiproliferative activity against human PBMC assessed as inhibition of PMA/ionomycin-stimulated cell proliferation by [3H]thymidine incorporation assay; assay type: functional, cell-based
[4] = molecular target: T1, Monocarboxylate transporter 1 (Rattus norvegicus) (UniProt P53987); experiment: 6-[[4-azido-3-(iodo-125I)phenyl]methyl]-2,6-dihydro-2-methyl-4-(2-methylpropyl)-1H-pyrrolo[3,4-d]pyridazin-1-one from MCT1 in rat RBC ghost membranes at 1 uM by photoaffinity labeling study; assay type: cell membranes
T1 sequence (whole entry): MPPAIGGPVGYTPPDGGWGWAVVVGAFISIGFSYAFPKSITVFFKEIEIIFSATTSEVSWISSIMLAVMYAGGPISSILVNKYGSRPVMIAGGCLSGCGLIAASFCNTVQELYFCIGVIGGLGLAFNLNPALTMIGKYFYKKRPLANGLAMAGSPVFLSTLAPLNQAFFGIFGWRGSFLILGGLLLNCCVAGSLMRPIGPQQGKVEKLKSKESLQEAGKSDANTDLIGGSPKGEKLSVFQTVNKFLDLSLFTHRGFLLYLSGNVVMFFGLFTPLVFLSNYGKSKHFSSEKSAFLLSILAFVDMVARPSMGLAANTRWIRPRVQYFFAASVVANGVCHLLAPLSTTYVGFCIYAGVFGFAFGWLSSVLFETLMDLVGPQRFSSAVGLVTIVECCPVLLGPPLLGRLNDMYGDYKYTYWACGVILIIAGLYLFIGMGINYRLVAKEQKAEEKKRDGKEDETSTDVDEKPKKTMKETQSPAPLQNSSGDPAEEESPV

[5] = molecular target: T2, Monocarboxylate transporter 1 (Homo sapiens, UniProt P53985); experiment: Displacement of [3H]5-[(3-hydroxypropyl)thio]-3-methyl-1-[2-(methyl-t)propyl-2,3-t2]-6-(1-naphthalenylmethyl)-1H-pyrrolo[3,4-d]pyrimidine-2,4(3H,6H)-dione from MCT1 in human Jurkat cell membranes
T2 sequence (P53985 whole entry): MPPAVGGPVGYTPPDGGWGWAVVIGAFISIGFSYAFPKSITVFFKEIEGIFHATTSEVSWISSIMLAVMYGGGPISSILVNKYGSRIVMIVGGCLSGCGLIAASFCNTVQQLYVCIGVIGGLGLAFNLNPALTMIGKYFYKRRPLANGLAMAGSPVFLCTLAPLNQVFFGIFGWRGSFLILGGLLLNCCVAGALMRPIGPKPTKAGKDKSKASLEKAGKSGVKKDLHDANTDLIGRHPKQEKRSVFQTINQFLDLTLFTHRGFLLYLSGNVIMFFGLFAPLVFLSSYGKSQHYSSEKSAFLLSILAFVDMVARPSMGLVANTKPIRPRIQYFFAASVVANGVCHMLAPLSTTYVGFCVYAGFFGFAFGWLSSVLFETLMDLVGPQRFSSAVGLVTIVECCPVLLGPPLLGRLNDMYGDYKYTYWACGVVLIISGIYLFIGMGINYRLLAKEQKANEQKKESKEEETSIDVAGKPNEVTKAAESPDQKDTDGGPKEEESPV

[6] = molecular target: T1, Monocarboxylate transporter 1 (Rattus norvegicus); experiment: 6-[[4-azido-3-(iodo-125I)phenyl]methyl]-2,6-dihydro-2-methyl-4-(2-methylpropyl)-1H-pyrrolo[3,4-d]pyridazin-1-one from MCT1 in rat RBC membranes at 50 nM by photoaffinity labeling study; assay type: cell membranes
[7] = system: Rattus norvegicus; experiment: Inhibition of graft-versus-host response-induced lymph node expansion in DA/Lewis recipient rat administered once daily through subcutaneous route; assay type: functional; conditions: sc
[8] = system: T-cell; experiment: Inhibition of DNA synthesis in PMA-ionomycin stimulated human T cells after 4 hrs by [3H]thymidine incorporation assay; assay type: functional, cell-based
[9] = system: T-cell; experiment: Reduction in extracellular lactate production in PMA-ionomycin stimulated human T cells after 4 hrs; assay type: functional, cell-based
[10] = system: T-cell; experiment: Increase in intracellular lactate production in PMA-ionomycin stimulated human T cells after 4 hrs; assay type: functional, cell-based
[11] = Antiproliferative activity against human T cells assessed as inhibition of PMA-ionomycin stimulated cell proliferation after 3 days by [3H]thymidine incorporation assay; assay type: functional, cell-based
[12] = system: T-cell; experiment: Inhibition of conversion of [1,2-13C2]glucose into [2,3-13C2]lactate in PMA-ionomycin stimulated human T cells at 10 nM after 6 hrs by GC-MS method; assay type: functional, cell-based
[13] = molecular target: T3, Monocarboxylate transporter 1 (Homo sapiens) (UniProt P53985); conditions: INS1, 10 nM
T3 sequence (whole entry): T2 sequence (P53985 whole entry)

Structure (SMILES) | inhibition [1] | inhibition [2] | IC50 [3] [nM] | inhibition [3] | inhibition [4] | Ki [5] [nM] | inhibition [6] | ED50 [7] [mg/kg/day] | IC50 [8] [nM] | IC50 [9] [nM] | IC50 [10] [nM] | IC50 [11] [nM] | inhibition [12] | inhibition [13]
CC(C)Cn1c(=O)n(C)c(=O)c2c(SCCCO)n(Cc3cccc4ccccc34)cc21 | Active | Active | 2.45 | Active | Active |  |  |  |  |  |  |  |  | 
CC(C)Cn1c(=O)[nH]c(=O)c2c(C(=O)N3CCC3)c(Cc3ccccc3C(F)(F)F)sc21 |  |  | > 1000 |  |  | > 200 | Active |  |  |  |  |  |  | 
CC(C)Cc1nn(C)c(=O)c2c(SCCCO)n(Cc3cccc4ccccc34)cc12 | Active | Active |  | Active |  |  |  | 5 | 1.35 | 0.794 | 0.55 | 0.38 | Active | Active

Reference: ChEMBL document CHEMBL1221163, “Monocarboxylate transporter MCT1 is a target for immunosuppression” (Nat Chem Biol, 2005)
